Data as given in patent publication US8354403B2, “Pyrrolidine derived beta 3 adrenergic receptor agonists” (Merck Sharp & Dohme Corp., priority 2009, dated 2013).
Like-named read-outs stand apart in the source and are kept apart here.

Target: T1, human β3 adrenergic receptor (Homo sapiens, UniProt P13945)
T1 construct: expressed in transfected cells; host or cells: Chinese hamster ovary (CHO) cells, stably transfected
Experiment: Beta-3 agonist in vitro functional assay: cAMP production (LANCE TR-FRET) in CHO cells stably transfected with the cloned β3 receptor
Format: cell-based
Conditions: Beta-3 agonist in vitro functional assay, read-out: Human β3 agonist functional activity
How it was run: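 CHO cells stably expressing the cloned receptor, in HEPES-buffered HBSS with BSA and 0.6 mM IBMX, 6,000 cells/well, exposed to compound for 30 min at RT. cAMP read by LANCE TR-FRET against a cAMP standard curve. Isoproterenol defines maximal stimulation.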

T1 sequence (P13945 whole entry): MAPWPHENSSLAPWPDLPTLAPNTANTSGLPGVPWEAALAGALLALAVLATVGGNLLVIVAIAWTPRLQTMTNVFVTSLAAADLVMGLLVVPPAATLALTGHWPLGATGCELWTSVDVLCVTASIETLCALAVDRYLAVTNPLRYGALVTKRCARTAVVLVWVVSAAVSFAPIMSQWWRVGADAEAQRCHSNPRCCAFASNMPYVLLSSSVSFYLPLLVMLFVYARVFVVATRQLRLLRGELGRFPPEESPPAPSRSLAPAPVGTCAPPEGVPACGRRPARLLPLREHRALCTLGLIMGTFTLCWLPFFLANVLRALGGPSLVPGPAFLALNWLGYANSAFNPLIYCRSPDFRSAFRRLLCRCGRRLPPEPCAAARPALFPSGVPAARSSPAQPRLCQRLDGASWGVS

## O=C(c1ccc(C[C@@H]2CC[C@H]([C@H](O)c3ccccc3)N2)cc1)N1CCC2(CCCN2)CC1 [Example 305]
Table 8
  EC50: 100 to 999 nM

## O=C(c1ccc(C[C@@H]2CC[C@H]([C@H](O)c3ccccc3)N2)cc1)N1CCC2(CCNC2)CC1 [Example 306]
Table 8
  EC50: 1 to 9.9 nM

## O=C(c1ccc(C[C@@H]2CC[C@H]([C@H](O)c3ccccc3)N2)cc1)N1CCC2(CCCO2)CC1 [Example 307]
Table 8
  EC50: 10 to 99.9 nM

## O=C(c1ccc(C[C@@H]2CC[C@H]([C@H](O)c3ccccc3)N2)cc1)N1CCC2(CC1)OC(C1CC1)c1ccccc12 (stereo partly shown) [Example 308]
Table 8
  EC50: 10 to 99.9 nM

## O=C(c1ccc(C[C@@H]2CC[C@H]([C@H](O)c3ccccc3)N2)cc1)N1CCC2(CC1)CC(c1ccc(F)cc1)CO2 (stereo partly shown) [Example 310]
Table 8
  EC50: 100 to 999 nM

## O=C(c1ccc(C[C@@H]2CC[C@H]([C@H](O)c3ccccc3)N2)cc1)N1CCC2(CCOC2)CC1 [Example 311]
Table 8
  EC50: 100 to 999 nM

## CC1(C)CC2(CCN(C(=O)c3ccc(C[C@@H]4CC[C@H]([C@H](O)c5ccccc5)N4)cc3)CC2)CO1 [Example 312]
Table 8
  EC50: 100 to 999 nM

## CC1(C)OCC2(CCN(C(=O)c3ccc(C[C@@H]4CC[C@H]([C@H](O)c5ccccc5)N4)cc3)CC2)C1O (stereo partly shown) [Example 313]
Table 8
  EC50: 100 to 999 nM

## O=C(c1ccc(C[C@@H]2CC[C@H]([C@H](O)c3ccccc3)N2)cc1)N1CCC2(CCCC2O)CC1 (stereo partly shown) [Example 314]
Table 8
  EC50: 100 to 999 nM

## NC1CCCC12CCN(C(=O)c1ccc(C[C@@H]3CC[C@H]([C@H](O)c4ccccc4)N3)cc1)CC2 (stereo partly shown) [Example 315]
Table 8
  EC50: 100 to 999 nM

## O=C(c1ccc(C[C@@H]2CC[C@H]([C@H](O)c3ccccc3)N2)cc1)N1CCC2(CCCC2=O)CC1 [Example 316]
Table 8
  EC50: 1 to 9.9 nM

## O=C(c1ccc(CC2CCC(C(O)c3ccccc3)N2)cc1)N1CCC2(CCCC2=NO)CC1 (stereo not shown) [Example 317]
Table 8
  EC50: 10 to 99.9 nM

## CON=C1CCCC12CCN(C(=O)c1ccc(CC3CCC(C(O)c4ccccc4)N3)cc1)CC2 (stereo not shown) [Example 318]
Table 8
  EC50: 100 to 999 nM

## COC(=O)C1CC2(CCN(C(=O)c3ccc(C[C@@H]4CC[C@H]([C@H](O)c5ccccc5)N4)cc3)CC2)c2ccccc21 (stereo partly shown) [Example 320]
Table 8
  EC50: 10 to 99.9 nM

## O=C(c1ccc(C[C@@H]2CC[C@H]([C@H](O)c3ccccc3)N2)cc1)N1CCC2(CCc3cn[nH]c32)CC1 [Example 321]
Table 8
  EC50: 100 to 999 nM

## O=C(c1ccc(C[C@@H]2CC[C@H]([C@H](O)c3ccccc3)N2)cc1)N1CCC2(CCc3cnoc32)CC1 [Example 322]
Table 8
  EC50: 10 to 99.9 nM

## O=C1CC2(CCN(C(=O)c3ccc(C[C@@H]4CC[C@H]([C@H](O)c5ccccc5)N4)cc3)CC2)Oc2ccccc21 [Example 323]
Table 8
  EC50: 10 to 99.9 nM

## CC(C)COc1ccc2c(c1)C(=O)CC1(CCN(C(=O)c3ccc(C[C@@H]4CC[C@H]([C@H](O)c5ccccc5)N4)cc3)CC1)O2 [Example 324]
Table 8
  EC50: 10 to 99.9 nM

## O=C1CC2(CCN(C(=O)c3ccc(C[C@@H]4CC[C@H]([C@H](O)c5ccccc5)N4)cc3)CC2)Oc2ccc(-c3nnn[nH]3)cc21 [Example 325]
Table 8
  EC50: 10 to 99.9 nM

## O=C1CC2(CCN(C(=O)c3ccc(C[C@@H]4CC[C@H]([C@H](O)c5ccccc5)N4)cc3)CC2)Sc2ccccc21 [Example 326]
Table 8
  EC50: 1 to 9.9 nM

## O=C1CC2(CCN(C(=O)c3ccc(C[C@@H]4CC[C@H]([C@H](O)c5cccnc5)N4)cc3)CC2)Sc2ccccc21 [Example 327]
Table 8
  EC50: 10 to 99.9 nM

## COc1ccc2c(c1)C(=O)CC1(CCN(C(=O)c3ccc(C[C@@H]4CC[C@H]([C@H](O)c5ccccc5)N4)cc3)CC1)S2 [Example 328]
Table 8
  EC50: 1 to 9.9 nM

## COc1ccc2c(c1)C(=O)CC1(CCN(C(=O)c3ccc(C[C@@H]4CC[C@H]([C@H](O)c5cccnc5)N4)cc3)CC1)S2 [Example 329]
Table 8
  EC50: 10 to 99.9 nM

## O=C1Nc2ncccc2C2(CCN(C(=O)c3ccc(C[C@@H]4CC[C@H]([C@H](O)c5ccccc5)N4)cc3)CC2)O1 [Example 330]
Table 8
  EC50: 10 to 99.9 nM

## COc1cccc2c1C1(CCN(C(=O)c3ccc(C[C@@H]4CC[C@H]([C@H](O)c5cccnc5)N4)cc3)CC1)OC(=O)N2 [Example 331]
Table 8
  EC50: 10 to 99.9 nM

## O=C1NC2(CCN(C(=O)c3ccc(C[C@@H]4CC[C@H]([C@H](O)c5ccccc5)N4)cc3)CC2)Oc2ccccc21 [Example 332]
Table 8
  EC50: 10 to 99.9 nM

## O=C1OC2(CCN(C(=O)c3ccc(C[C@@H]4CC[C@H]([C@H](O)c5ccccc5)N4)cc3)CC2)Cc2ccccc21 [Example 333]
Table 8
  EC50: 1 to 9.9 nM

## O=C(c1ccc(C[C@@H]2CC[C@H]([C@H](O)c3ccccc3)N2)cc1)N1CCC2(CC1)Nc1ccccc1S(=O)(=O)N2 [Example 334]
Table 8
  EC50: 1 to 9.9 nM

## CC1C(=O)c2cc(S(C)(=O)=O)ccc2OC12CCN(C(=O)c1ccc(C[C@@H]3CC[C@H]([C@H](O)c4ccccc4)N3)cc1)CC2 (stereo partly shown) [Example 335]
Table 8
  EC50: 10 to 99.9 nM

## O=C(c1ccc(C[C@@H]2CC[C@H]([C@H](O)c3ccccc3)N2)cc1)N1CCC2(CCc3ccccc3S2(=O)=O)CC1 [Example 336]
Table 8
  EC50: 1 to 9.9 nM

## O=C(c1ccc(C[C@@H]2CC[C@H]([C@H](O)c3ccccc3)N2)cc1)N1CCC2(C=Cc3ccccc3S2(=O)=O)CC1 [Example 337]
Table 8
  EC50: 1 to 9.9 nM

## O=C1CC2(CCN(C(=O)c3ccc(C[C@@H]4CC[C@H]([C@H](O)c5ccccc5)N4)cc3)CC2)S(=O)(=O)c2ccccc21 [Example 338]
Table 8
  EC50: 1 to 9.9 nM

## COc1ccc2c(c1)C(=O)CC1(CCN(C(=O)c3ccc(C[C@@H]4CC[C@H]([C@H](O)c5ccccc5)N4)cc3)CC1)S2(=O)=O [Example 339]
Table 8
  EC50: 1 to 9.9 nM

## O=C1CC2(CCN(C(=O)c3ccc(C[C@@H]4CC[C@H]([C@H](O)c5ccccc5)N4)cc3)CC2)S(=O)(=O)c2sccc21 [Example 340]
Table 8
  EC50: 1 to 9.9 nM

## CC(=O)N1CCN(C(=O)c2ccc(C[C@@H]3CC[C@H]([C@H](O)c4ccccc4)N3)cc2)CC1 [Example 343]
Table 9
  EC50: 100 to 999 nM

## CCOC(=O)N1CCN(C(=O)c2ccc(C[C@@H]3CC[C@H]([C@H](O)c4ccccc4)N3)cc2)CC1 [Example 344]
Table 9
  EC50: 100 to 999 nM

## CS(=O)(=O)N1CCN(C(=O)c2ccc(C[C@@H]3CC[C@H]([C@H](O)c4ccccc4)N3)cc2)CC1 [Example 345]
Table 9
  EC50: 100 to 999 nM

## O=C(c1ccc(C[C@@H]2CC[C@H]([C@H](O)c3ccccc3)N2)cc1)N1CCN(S(=O)(=O)c2ccccc2)CC1 [Example 346]
Table 9
  EC50: 10 to 99.9 nM

## O=C(c1ccccc1)N1CCN(C(=O)c2ccc(C[C@@H]3CC[C@H]([C@H](O)c4ccccc4)N3)cc2)CC1 [Example 347]
Table 9
  EC50: 100 to 999 nM

## O=C(c1ccc(C[C@@H]2CC[C@H]([C@H](O)c3ccccc3)N2)cc1)N1CCN(C(=O)c2ccccn2)CC1 [Example 348]
Table 9
  EC50: 10 to 99.9 nM

## O=C(c1ccc(C[C@@H]2CC[C@H]([C@H](O)c3ccccc3)N2)cc1)N1CCN(C(=O)c2ccco2)CC1 [Example 349]
Table 9
  EC50: 100 to 999 nM

## O=C(O)c1ccccc1N1CCN(C(=O)c2ccc(C[C@@H]3CC[C@H]([C@H](O)c4ccccc4)N3)cc2)CC1 [Example 350]
Table 9
  EC50: 100 to 999 nM

## COC(=O)c1ccccc1N1CCN(C(=O)c2ccc(C[C@@H]3CC[C@H]([C@H](O)c4ccccc4)N3)cc2)CC1 [Example 351]
Table 9
  EC50: 10 to 99.9 nM

## O=C(c1ccc(C[C@@H]2CC[C@H]([C@H](O)c3ccccc3)N2)cc1)N1CCN(c2ccc3c(c2)OCO3)CC1 [Example 353]
Table 9
  EC50: 100 to 999 nM

## O=C(c1ccc(C[C@@H]2CC[C@H]([C@H](O)c3ccccc3)N2)cc1)N1CCN(c2ccc3c(c2)OCCO3)CC1 [Example 354]
Table 9
  EC50: 100 to 999 nM

## O=C(c1ccc(C[C@@H]2CC[C@H]([C@H](O)c3ccccc3)N2)cc1)N1CCN(c2ccccn2)CC1 [Example 355]
Table 9
  EC50: 100 to 999 nM
